Key:
[1] = tested on: A. fumigatus wildtype (ATCC46645); assay: In vitro uptake assay in A. fumigatus; type: cell-based, Aspergillus fumigatus; conditions: iron-starvation condition, 45 min, normalized to [^68Ga]TAFC uptake from the same experiment, n = 3
Experimental: For in vitro uptake studies, A. fumigatus wildtype (ATCC46645) was used. Fungal strain was cultured at 37 °C in Aspergillus minimal medium (AMM) containing 1 % (m/v) glucose as carbon source, 20 mM glutamine as nitrogen source, salts, and trace elements. Iron-sufficient media were prepared by adding FeSO4 to a final concentration of 30 μM. For iron-deficient conditions, supplementation of iron was omitted. Iron starvation was verified by the detection of extracellular siderophore production which is suppressed by iron supplementation.
Uptake assays were performed in either iron-deficient or iron-sufficient A. fumigatus wildtype cultures. In a 96-well MultiScreen Filter Plates HTS (1 μm glass fiber filter, Merck Millipore, Darmstadt, Germany), 180 μl of A. fumigatus suspended in iron-replete or iron-depleted medium was added. [^68Ga]siderophores (approx. 1 × 10^5 cpm, 80 nM) were incubated with either PBS pH 7.4 (total series) or blocking solution (10 μM [Fe]TAFC) (non-specific series) at RT for 45 min in quadriplicates. The incubation was interrupted by suction of the medium and the plate was washed twice with ice-cold TRIS-buffered saline (10 mM, pH 7.3). The filters were isolated and the remaining activities were measured in the gamma counter. The uptake was calculated as % uptake of total activity added; each assay was repeated three times. To normalize uptake variations between different fungal cultures, the uptake of each [^68Ga]siderophore was expressed as the ratio to [^68Ga]TAFC uptake from the same experiment. The mean values of three different assays were used to quantitatively compare the difference in uptake between the compounds.

[2] = tested on: A. fumigatus mutant strain ΔsidA/ΔftrA; assay: Siderophore utilization growth assay; type: cell-based, Aspergillus fumigatus; conditions: 37 °C; for degree of utilization / growth support by [Fe]siderophore: 0.1-100 μM [Fe]siderophore in AMM; for concentration of [Fe]siderophore at which growth was supported: 48 h incubation
Description: For siderophore utilization growth assays, A. fumigatus mutant strain ΔsidA/ΔftrA [7], which can grow only in the presence of externally added iron-siderophores or at high iron concentrations, was used. The fungal strain was inoculated in iron-deficient culture as described above.
To investigate the ability or inability of A. fumigatus to take up and utilize [Fe]siderophores as iron source, a growth assay with the A. fumigatus mutant strain ΔsidA/ΔftrA was employed. In a 24-well plate, aliquots of 10^3 conidia of mutant strain were point inoculated on 1 ml of AMM containing 0.1, 1, 10, 50, or 100 μM of [Fe]siderophore and incubated at 37 °C for 48 h. For the control, fungi were grown in iron-limited AMM without adding [Fe]siderophore.

With `CC(=O)NC1CCCN(O)C(=O)C=C(C)CCOC(=O)C(NC(=O)c2ccccc2)CCCN(O)C(=O)C=C(C)CCOC(=O)C(NC(C)=O)CCCN(O)C(=O)C=C(C)CCOC1=O` (stereo not drawn) (68Ga complex, metal not drawn) [DABzFC] the “uptake ratio to [^68Ga]TAFC” value [1] was 0.53.
`CC(=O)NC1CCCN(O)C(=O)C=C(C)CCOC(=O)C(NC(=O)CN)CCCN(O)C(=O)C=C(C)CCOC(=O)C(NC(C)=O)CCCN(O)C(=O)C=C(C)CCOC1=O` (stereo not drawn) (68Ga complex, metal not drawn) [DAFC(gly)] was tested, and the “uptake ratio to [^68Ga]TAFC” value [1] was 0.89 and the “uptake ratio to [^68Ga]TAFC” value ([1]; listed as [^68Ga]DAFC(gly)) was “around 1”.
`CC(=O)NC1CCCN(O)C(=O)C=C(C)CCOC(=O)C(NC(=O)CCC(=O)O)CCCN(O)C(=O)C=C(C)CCOC(=O)C(NC(C)=O)CCCN(O)C(=O)C=C(C)CCOC1=O` (stereo not drawn) (68Ga complex, metal not drawn) [DAFC(suc)] was tested, and the “uptake ratio to [^68Ga]TAFC” value [1] was 0.33.
For `CC(=O)NC1CCCN(O)C(=O)C=C(C)CCOC(=O)C(NC(C)=O)CCCN(O)C(=O)C=C(C)CCOC(=O)C(N)CCCN(O)C(=O)C=C(C)CCOC1=O` (stereo not drawn) (68Ga complex, metal not drawn) [DAFC], the “uptake ratio to [^68Ga]TAFC” value [1] was 0.56.
In the case of `CCC(=O)NC1CCCN(O)C(=O)C=C(C)CCOC(=O)C(NC(C)=O)CCCN(O)C(=O)C=C(C)CCOC(=O)C(NC(C)=O)CCCN(O)C(=O)C=C(C)CCOC1=O` (stereo not drawn) (68Ga complex, metal not drawn) [DAPFC], the “uptake ratio to [^68Ga]TAFC” value [1] is reported as 0.99 and the “uptake ratio to [^68Ga]TAFC” value ([1]; listed as [^68Ga]DAPFC) is reported as “around 1”.
`CC1=CC(=O)N(O)CCCC(NC(=O)CN)C(=O)OCCC(C)=CC(=O)N(O)CCCC(NC(=O)CN)C(=O)OCCC(C)=CC(=O)N(O)CCCC(NC(=O)CN)C(=O)OCC1` (stereo not drawn) (68Ga complex, metal not drawn) [FSC(gly)3] was tested, and the “uptake ratio to [^68Ga]TAFC” value [1] was 0.01 and the “uptake ratio to [^68Ga]TAFC” value ([1]; listed as [^68Ga]FSC(gly)3) was “less than 0.05”.
For `CC(=O)NC1CCCN(O)C(=O)C=C(C)CCOC(=O)C(NC(=O)CN)CCCN(O)C(=O)C=C(C)CCOC(=O)C(NC(=O)CN)CCCN(O)C(=O)C=C(C)CCOC1=O` (stereo not drawn) (68Ga complex, metal not drawn) [MAFC(gly)2], the “uptake ratio to [^68Ga]TAFC” value [1] was 0.03 and the “uptake ratio to [^68Ga]TAFC” value ([1]; listed as [^68Ga]MAFC(gly)2) was “less than 0.05”.
In the case of `CC(=O)NC1CCCN(O)C(=O)C=C(C)CCOC(=O)C(NC(=O)CCC(=O)O)CCCN(O)C(=O)C=C(C)CCOC(=O)C(NC(=O)CCC(=O)O)CCCN(O)C(=O)C=C(C)CCOC1=O` (stereo not drawn) (68Ga complex, metal not drawn) [MAFC(suc)2], the “uptake ratio to [^68Ga]TAFC” value [1] is reported as 0.04 and the “uptake ratio to [^68Ga]TAFC” value ([1]; listed as [^68Ga]MAFC(suc)2) is reported as “less than 0.05”.
`CC(=O)NC1CCCN(O)C(=O)C=C(C)CCOC(=O)C(N)CCCN(O)C(=O)C=C(C)CCOC(=O)C(N)CCCN(O)C(=O)C=C(C)CCOC1=O` (stereo not drawn) (68Ga complex, metal not drawn) [MAFC] was tested, and the “uptake ratio to [^68Ga]TAFC” value [1] was 0.26.
For `CCCC(=O)NC1CCCN([O-])C(=O)C=C(C)CCOC(=O)C(NC(C)=O)CCCN([O-])C(=O)C=C(C)CCOC(=O)C(NC(C)=O)CCCN([O-])C(=O)C=C(C)CCOC1=O.[Fe+3]` (stereo not drawn) [[Fe]DABuFC, butanoyl[Fe]DAFC], the “degree of utilization / growth support by [Fe]siderophore” value (from here on “degree of utilization / growth support”) ([2]; 48 h) was “Medium degree”.
With `CC(=O)NC1CCCN([O-])C(=O)C=C(C)CCOC(=O)C(NC(=O)c2ccccc2)CCCN([O-])C(=O)C=C(C)CCOC(=O)C(NC(C)=O)CCCN([O-])C(=O)C=C(C)CCOC1=O.[Fe+3]` (stereo not drawn) [[Fe]DABzFC, benzoyl[Fe]DAFC] the “degree of utilization / growth support” value ([2]; 48 h) was “Medium degree”.
In the case of `CC(=O)NC1CCCN([O-])C(=O)C=C(C)CCOC(=O)C(NC(=O)CN)CCCN([O-])C(=O)C=C(C)CCOC(=O)C(NC(C)=O)CCCN([O-])C(=O)C=C(C)CCOC1=O.[Fe+3]` (stereo not drawn) [[Fe]DAFC(gly), glycyl[Fe]DAFC], the “degree of utilization / growth support” value ([2]; 48 h) is reported as “low degree” and the “concentration of [Fe]siderophore at which growth was supported” value (“concentration of [Fe]siderophore” for short) [2] is reported as 1 µM.
With `CC(=O)NC1CCCN([O-])C(=O)C=C(C)CCOC(=O)C(NC(=O)CCC(=O)O)CCCN([O-])C(=O)C=C(C)CCOC(=O)C(NC(C)=O)CCCN([O-])C(=O)C=C(C)CCOC1=O.[Fe+3]` (stereo not drawn) [[Fe]DAFC(suc), succinyl[Fe]DAFC] the “degree of utilization / growth support” value ([2]; 48 h) was “low degree” and the “concentration of [Fe]siderophore” value [2] was 1 µM.
In the case of `CC(=O)NC1CCCN([O-])C(=O)C=C(C)CCOC(=O)C(NC(C)=O)CCCN([O-])C(=O)C=C(C)CCOC(=O)C(N)CCCN([O-])C(=O)C=C(C)CCOC1=O.[Fe+3]` (stereo not drawn) [[Fe]DAFC, diacetyl[Fe]FSC], the “concentration of [Fe]siderophore” value [2] is reported as 0.1 µM.
For `CCC(=O)NC1CCCN([O-])C(=O)C=C(C)CCOC(=O)C(NC(C)=O)CCCN([O-])C(=O)C=C(C)CCOC(=O)C(NC(C)=O)CCCN([O-])C(=O)C=C(C)CCOC1=O.[Fe+3]` (stereo not drawn) [[Fe]DAPFC, propanoyl[Fe]DAFC], the “degree of utilization / growth support” value ([2]; 48 h) was “Medium degree”.
In the case of `CC1=CC(=O)N([O-])CCCC(NC(=O)CN)C(=O)OCCC(C)=CC(=O)N([O-])CCCC(NC(=O)CN)C(=O)OCCC(C)=CC(=O)N([O-])CCCC(NC(=O)CN)C(=O)OCC1.[Fe+3]` (stereo not drawn) [[Fe]FSC(gly)3, triglycyl[Fe]FSC], the “degree of utilization / growth support” value ([2]; 48 h) is reported as “low degree” and the “concentration of [Fe]siderophore” value [2] is reported as 1 µM.
In the case of `CC1=CC(=O)N([O-])CCCC(NC(=O)CCC(=O)O)C(=O)OCCC(C)=CC(=O)N([O-])CCCC(NC(=O)CCC(=O)O)C(=O)OCCC(C)=CC(=O)N([O-])CCCC(NC(=O)CCC(=O)O)C(=O)OCC1.[Fe+3]` (stereo not drawn) [[Fe]FSC(suc)3, trisuccinyl[Fe]FSC], the “growth at 50 μM [Fe]siderophore” value ([2]; 50 μM, 48 h) is reported as “no growth”, the “growth at 100 μM [Fe]siderophore” value ([2]; 100 μM, 48 h) is reported as “sporulation defect” and the “degree of utilization / growth support” value ([2]; 48 h) is reported as “lowest level of growth”.
In the case of `CC1=CC(=O)N([O-])CCCC(N)C(=O)OCCC(C)=CC(=O)N([O-])CCCC(N)C(=O)OCCC(C)=CC(=O)N([O-])CCCC(N)C(=O)OCC1.[Fe+3]` (stereo not drawn) [[Fe]FSC, [Fe]fusarinine C, reference compound], the “concentration of [Fe]siderophore” value [2] is reported as 0.1 µM.
With `CC(=O)NC1CCCN([O-])C(=O)C=C(C)CCOC(=O)C(NC(=O)CN)CCCN([O-])C(=O)C=C(C)CCOC(=O)C(NC(=O)CN)CCCN([O-])C(=O)C=C(C)CCOC1=O.[Fe+3]` (stereo not drawn) [[Fe]MAFC(gly)2, diglycyl[Fe]MAFC] the “degree of utilization / growth support” value ([2]; 48 h) was “low degree” and the “concentration of [Fe]siderophore” value [2] was 1 µM.
In the case of `CC(=O)NC1CCCN([O-])C(=O)C=C(C)CCOC(=O)C(NC(=O)CCC(=O)O)CCCN([O-])C(=O)C=C(C)CCOC(=O)C(NC(=O)CCC(=O)O)CCCN([O-])C(=O)C=C(C)CCOC1=O.[Fe+3]` (stereo not drawn) [[Fe]MAFC(suc)2, disuccinyl[Fe]MAFC], the “degree of utilization / growth support” value ([2]; 48 h) is reported as “low degree” and the “concentration of [Fe]siderophore” value [2] is reported as 1 µM.
In the case of `CC(=O)NC1CCCN([O-])C(=O)C=C(C)CCOC(=O)C(N)CCCN([O-])C(=O)C=C(C)CCOC(=O)C(N)CCCN([O-])C(=O)C=C(C)CCOC1=O.[Fe+3]` (stereo not drawn) [[Fe]MAFC, acetyl[Fe]FSC], the “concentration of [Fe]siderophore” value [2] is reported as 0.1 µM.
For `CC(=O)N[C@H]1CCCN(O)C(=[OH+])/C=C(/C)CCOC(=O)[C@@H](NC(C)=O)CCCN(O)C(=[OH+])/C=C(/C)CCOC(=O)[C@@H](NC(C)=O)CCCN(O)C(=[OH+])/C=C(/C)CCOC1=O.[Fe]` [[Fe]TAFC, triacetyl[Fe]FSC, reference compound], the “degree of utilization / growth support” value ([2]; 48 h) was “Medium degree”.
With `CCC(=O)NC1CCCN([O-])C(=O)C=C(C)CCOC(=O)C(NC(=O)CC)CCCN([O-])C(=O)C=C(C)CCOC(=O)C(NC(=O)CC)CCCN([O-])C(=O)C=C(C)CCOC1=O.[Fe+3]` (stereo not drawn) [[Fe]TPFC, tripropanoyl[Fe]FSC] the “degree of utilization / growth support” value ([2]; 48 h) was “Medium degree”.
With tributanoyl[Fe]FSC [[Fe]TBuFC] the “degree of utilization / growth support” value ([2]; 48 h) was “Medium degree”.

Source: article PMC6877352, “Modifying the Siderophore Triacetylfusarinine C for Molecular Imaging of Fungal Infection” (Molecular imaging and biology, 2019)
